The record followed here is publication PMC6246607, “Novel AR-12 derivatives, P12-23 and P12-34, inhibit flavivirus replication by blocking host de novo pyrimidine biosynthesis” (Emerging Microbes & Infections, 2018).

Data set [1] in a line: LDH release cytotoxicity assay. The data set is classed as cell-based, human. The following applies: human, A549 cells. The method, then: (§1) Cells were treated with compounds at the indicated concentrations for 24 h. The release of lactate dehydrogenase (LDH) was measured using a Cytotoxicity Detection Kit (Roche, Basel, Switzerland) after removing cell debris. Cells treated with 1% Triton X-100 were used to determine the maximal LDH release.

Data set [2] deals with A549 cells. In words: LDH release cytotoxicity assay. The data set is classed as cell-based, human. The following applies: 24 h. The method, then:
as §1

In data set [3] the test system is DENV-2-eGFP. The data set is described as follows: microbe, parasite or virus in culture. The data set is classed as cell-based, dengue virus. The method, then:
(§2) Approximately 50% of confluent cells seeded in 96-well plates were infected with viruses in the presence of drugs or DMSO as a solvent control. At 24 h post-infection (hpi), cells were fixed with 4% paraformaldehyde at room temperature (RT) for 20 min, permeated with a 0.5% Triton X-100 buffer for 2 min, and blocked with 3% BSA for 30 min. Nuclei were stained with DAPI (Sigma) at RT for 20 min. Viral NS3 was stained with a mouse anti-NS3 monoclonal antibody (mAb)[47] followed by staining with an Alexa Fluor 488-conjugated goat anti-mouse IgG antibody (ThermoFisher) at RT for 1 h. Nine images from different fields per well were acquired and analyzed using an ImageXpress Micro XLS Widefield High-Content Analysis System (Molecular Devices, Sunnyvale, USA). To quantify viral infection, the fluorescence intensities of viral NS3 or eGFP from the reporter virus were measured using MetaXpress® (Molecular Devices, Sunnyvale, USA) and were calculated with a mock control (infection as 0%) and a DMSO solvent control (infection as 100%).

Data set [4] has as its system ZIKV. The data set is described as follows: High-content image analysis of ZIKV infection (NS3) in A549 cells. The data set is classed as cell-based, Zika virus. The method, then: as §2
For data set [5], the system named is DENV-1. In words: High-content image analysis of DENV-1 infection (NS3) in A549 cells. The data set is classed as cell-based, dengue virus. How it is done: as §2
In data set [6] the test system is DENV-3. In words: High-content image analysis of DENV-3 infection (NS3) in A549 cells. The data set is classed as cell-based, dengue virus. The method, then:
as §2

Data set [7] relates to DENV-4. The data set is described as follows: High-content image analysis of DENV-4 infection (NS3) in A549 cells. Format: cell-based, dengue virus. The method, then: as §2
In data set [8] the test system is wild-type DENV (DENV1-4). In words: High-content image analysis, all four serotypes of wild-type DENV in A549 cells. The data set is classed as cell-based. The following applies: Dengue virus, DENV1, A549, read-out: IC50 range over the four serotypes. The method, then: as §2
Data set [9] relates to DENV-2. The data set is described as follows: Viral binding assay. The conditions noted are these: 1 µM, A549 cells, DENV-2 MOI 5, 4 °C 1 h. The data set is classed as cell-based, dengue virus. The method, then:
A549 cells and DENV-2 separately pretreated with P12-23 (1 µM), P12-34 (1 µM) or heparin (100 unit/ml) at 37 ℃ for 1 h were mixed to allow for viral adsorption at a multiplicity of infection (MOI) of 5 at 4 °C for 1 h. After washing off unbound viruses, RNA was extracted using an RNeasy® Mini Kit (QIAGEN, Hilden, Germany), and viral titers were quantified by real-time RT-PCR as previously described[48] using DENV-2 primers (5′-[…]-3′ and 5′-[…]-3′) and β-actin primers (5′-[…]-3′ and 5′-[…]-3′). After the RNA was normalized to the internal control in each sample, the relative level of viral RNA was determined using the DMSO solvent control.

The subject of data set [10] is DENV-2. In words: Viral RNA replication assay (RT-qPCR). Format: cell-based, dengue virus. The conditions noted are these: 1 µM added at 1 hpi versus 2′CMA 20 µM, A549 cells, DENV-2 MOI 5. How it is done: Viral infection (MOI 5) and drug treatment were performed as described for the virus translation assay. Cells were harvested for real-time RT-PCR analysis after removing the cell-free viruses at 1, 2, 3, 6, 9, 12, 18, and 27 hpi. Viral RNA was quantified and normalized with actin RNA as described for the virus binding assay.
A general note: Real-time PCR tracks product formation cycle by cycle.

The target of data set [11] is T1, DHODH (Homo sapiens, UniProt Q02127).
T1 construct: endogenous in cells; host or cells: A549 cell lysate
The data set is described as follows: BP12-34 pull-down, DHODH. The data set is classed as binding. The following applies: BP12-34 0.25 or 0.5 µM pull-down, A549 cell lysates. The method, then:
Supplementary figure 4. P12-34 interacts with cytochrome bc1 complex. Cell lysates of A549 were treated with 0.25 μM (+) or 0.5 μM (++) BP12-34 at 4 ℃ for 1 h, then incubated with streptavidin (SA) beads at 4 ℃ for 30 min. Non-specific binding was removed by washing with PBS. After precipitation, P12-34-associated proteins were analyzed by western blot with the indicated antibodies against DHODH and cytochrome bc1 complex.

Data set [12] deals with interferon (IFN)-stimulated response element (ISRE) reporter. In words: ISRE reporter assay and IFN-stimulated gene expression in HEK 293T cells. The conditions noted are these: 1 µM, 24 h. The data set is classed as cell-based, human. How it is done:
Short synthetic 5′-triphosphate RNA molecules (ssRNA) was synthesized with use of the RiboMAX™ Large Scale RNA Production Kit (P1280, Promega) from control DNA template in the kit, then extracted with the RNeasy® Mini Kit (QIAGEN). About 80% confluent HEK 293T cells in 48 well-plate were co-transfected with pISRE-Luc (Stratagene, Ref 219089) (10 ng/well) and pRL-TK Renilla reporter plasmids (E2241, Promega) (2 ng/well), and increasing doses of ssRNA, then treated with DMSO, 1 μM brequinar, or 1 μM P12-34 for 24h. The luciferase activities were analyzed by using the Dual-Luciferase® Reporter Assay Kit (Promega) and SpectraMax L Microplate Reader (Molecular devices, San Jose, CA, USA). ISRE-Luciferase activity was firstly normalized with Renilla-luciferase activity, then normalized with DMSO control without ssRNA.
Supplementary figure 5. P12-34 amplifies innate immune response. (a) HEK 293T cells were co-transfected with pISRE-luc and pRL-TK Renilla reporter plasmids, and short synthetic 5′-triphosphate RNA molecules (ssRNA), then treated with DMSO, brequinar (1 μM), or P12-34 (1 μM) for 24 h. ISRE-Luciferase activity was normalized with Renilla-luciferase activity in each sample, and then the relative ISRE-Luc level was determined with the DMSO control without ssRNA. Representative data from repeated experiments are shown as mean and SD (n =3). […]

Values joined by “and” are separate entries in the source; they are usually repeats but may differ in a detail not shown here. Equal entries are not always repeated.

T1 sequence (Q02127 whole entry): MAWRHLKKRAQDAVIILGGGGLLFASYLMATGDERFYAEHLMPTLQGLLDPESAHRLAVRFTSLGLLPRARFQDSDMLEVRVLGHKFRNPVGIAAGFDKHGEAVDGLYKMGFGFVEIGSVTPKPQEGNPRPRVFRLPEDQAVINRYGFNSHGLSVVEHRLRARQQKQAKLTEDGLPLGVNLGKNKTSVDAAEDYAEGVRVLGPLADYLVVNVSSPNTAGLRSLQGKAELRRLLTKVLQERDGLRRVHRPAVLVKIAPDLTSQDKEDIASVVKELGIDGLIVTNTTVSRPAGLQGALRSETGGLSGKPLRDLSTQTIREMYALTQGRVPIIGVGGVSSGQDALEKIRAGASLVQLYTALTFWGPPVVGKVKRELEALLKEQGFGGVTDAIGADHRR

As a reminder, the CC50 is the concentration that lowers cell viability or growth by half. A high value points to lower toxicity to the cells. A word on the IC50: it is the concentration at which inhibition is half-maximal. In data set [1], `N[C@@H](Cc1ccccc1)C(=O)Nc1ccc(-n2cc(C(F)(F)F)cc2-c2ccc3c(ccc4ccccc43)c2)cc1` [P12-34] registered a CC50 at 24 h of around 20 µM. In data set [2] (A549 cells), this compound came in with a CC50 of 20.3 ± 0.2 µM. This compound had a noncytotoxic concentrations in data set [2] (human A549 cells) of at most 12.5 µM. In addition, the “SI (CC50/IC50)” value in data set [3] (DENV-2-eGFP, A549 cells) is 388 and 387.9 ± 14.7; in [4] (ZIKV, A549 cells), 171.4 ± 16.1; in [5] (DENV-1, A549 cells) it was 206.3 ± 3.5; in data set [6] (DENV-3, A549 cells) it was 223.4 ± 8.6; in [7] (DENV-4, A549 cells) it was 317.8 ± 24.9. Also, the IC50 is 0.0521 ± 0.002 µM in data set [3] (Dengue virus, DENV2, A549, 24 h); 0.119 ± 0.0117 µM in [4] (Zika virus, ZIKV, MOI 0.5, A549 cells, 24 h); 0.098 ± 0.0017 µM in [5] (Dengue virus, DENV1, A549, 24 h); 0.0906 ± 0.0034 µM in data set [6] (Dengue virus, DENV3, A549, 24 h); 0.0639 ± 0.0051 µM in [7] (Dengue virus, DENV4, A549, 24 h); 0.062 to 0.098 µM in data set [8]. For the same compound, in data set [3] (P12-34 1 µM, A549 cells, DENV-2-eGFP MOI 5), the “suppressive effect on DENV replication with added Oro or DHO” value is given as “addition of Oro but not DHO could block the suppressive effect”. Also, the “anti-DENV activity in mitochondria-depleted cells” value in data set [3] (ρ0 A549 cells, DENV-2-eGFP MOI 5, 24 h) is listed as “lost”. Moreover, the “suppression of ZIKV replication with uridine supplement” value in data set [4] (P12-34 1 µM, uridine 50 µg/ml, A549 cells) is recorded as “this effect of uridine was also noted”. The “relative potency versus AR-12 (fold)” value in data set [4] (ZIKV, A549 cells) is ~ 10 fold. The “effect on viral binding” value in data set [9] was “no suppressive effect”. Further, the “suppression of intracellular viral RNA replication” value in data set [10] was “more potent than 2′CMA”. For the same compound, the “interaction with DHODH” value in [11] is on record as “did not appear to interact with DHODH”. Further, the “innate immune responses triggered by ssRNA (ISRE reporter, IFIT1, IRF-1)” value in [12] is listed as “enhanced the innate immune responses”.
